Laboratory results: ChEMBL document CHEMBL4725301, “Discovery of a novel 9-position modified second-generation anti-HCV candidate via bioconversion and semi-synthesis of FR901459” (Bioorg Med Chem Lett, 2020)
Values after ≈ are worked out from the molar mass of the structure shown.

Columns and labels:
[1] = Inhibition of cyclophilin (unknown origin) assessed as inhibition of HCV #50-1 subgenomic viral replicon replication in presence of 50% human serum albumin
Splenocyte = assay: Immunosuppressive activity in mouse splenocytes assessed as inhibition of concanavalinA-induced cell proliferation; format: cell-based
[2] = Inhibition of cyclophilin (unknown origin) assessed as inhibition of HCV #50-1 subgenomic viral replicon replication in presence of 5% FBS; set-up: species or system Homo sapiens
[3] = Inhibition of cyclophilin (unknown origin) assessed as inhibition of HCV FLR1 subgenomic viral replicon replication in presence of 10% FBS by luciferase reporter gene assay; set-up: species or system Homo sapiens
Hepatitis C virus = assay: Antiviral activity against Hepatitis C virus genotype 1a infected in humanized liver SCID-Alb/uPA chimeric mouse assessed as log reduction in serum HCV RNA level at 15 mg/kg, po administered via gavage bid for 14 days cotreated with interferon-alfa2b at 400 U/g, sc administered qd measured for 7 days follow-up period without compound administration post-last dose; format: functional, Hepacivirus hominis, subtype 1a; settings: time 14 day
[4] = Aqueous solubility of the compound in JP2 fluid at pH 6.8 by disintegration test; format: physicochemical
[5] = AUC (0 to 24 hrs) in po dosed rat; format: ADME, organism-based; set-up: time < 24 hr, route oral; settings: in vivo
[6] = Inhibition of cyclophilin (unknown origin) assessed as inhibition of HCV FLR1 subgenomic viral replicon replication in presence of 50% human serum albumin by luciferase reporter gene assay
[7] = Oral bioavailability in rat; format: ADME, organism-based; settings: in vivo

C/C=C/C[C@@H](C)[C@@H](O)[C@H]1C(=O)N[C@@H]([C@@H](C)O)C(=O)N(C)CC(=O)N(C)[C@@H](CC(C)C)C(=O)N[C@@H](CC(C)C)C(=O)N(C)[C@@H](CC(C)C)C(=O)N[C@@H](C)C(=O)N[C@H](C)C(=O)N[C@@H](C[C@H](C)CO)C(=O)N[C@@H](CC(C)C)C(=O)N(C)[C@@H](C(C)C)C(=O)N1C
EC50 [1]: 2.4 µg/mL
IC50 (Splenocyte): 0.28 µg/mL (≈ 0.229 µM)
EC50 [2]: 0.85 µg/mL

C/C=C/C[C@@H](C)[C@@H](O)[C@H]1C(=O)N[C@@H]([C@@H](C)O)C(=O)N(C)CC(=O)N(C)[C@@H](CC(C)C)C(=O)N[C@@H](CC(C)C)C(=O)N(C)[C@@H](CC(C)C)C(=O)N[C@@H](C)C(=O)N[C@H](C)C(=O)N[C@@H](C[C@H](C)COCC(=O)N2CCOCC2)C(=O)N[C@@H](CC(C)C)C(=O)N(C)[C@@H](C(C)C)C(=O)N1C
EC50 [1]: 0.56 µg/mL
IC50 (Splenocyte): 0.92 µg/mL (≈ 0.683 µM)
EC50 [2]: 0.099 µg/mL

C/C=C/C[C@@H](C)[C@@H](O)[C@H]1C(=O)N[C@@H]([C@@H](C)O)C(=O)N(C)[C@H](COC)C(=O)N(C)[C@@H](CC(C)C)C(=O)N[C@@H](CC(C)C)C(=O)N(C)[C@@H](CC(C)C)C(=O)N[C@@H](C)C(=O)N[C@H](C)C(=O)N[C@@H](C[C@H](C)CN2CCOC(COC)(COC)C2)C(=O)N[C@@H](CC(C)C)C(=O)N(C)[C@@H](C(C)C)C(=O)N1C
EC50 [3]: 0.063 µg/mL
log(activity) (Hepatitis C virus): 2
IC50 (Splenocyte): 1.7 µg/mL (≈ 1.2 µM)
solubility [4]: 54 µg/mL (≈ 38 µM)
AUC(0-t) at 24 h [5]: 16900 ng·h/mL
EC50 [6]: 0.1 µg/mL
bioavailability [7]: 28.3%

C/C=C/C[C@@H](C)[C@@H](O)[C@H]1C(=O)N[C@@H]([C@@H](C)O)C(=O)N(C)CC(=O)N(C)[C@@H](CC(C)C)C(=O)N[C@@H](CC(C)C)C(=O)N(C)[C@@H](CC(C)C)C(=O)N[C@@H](C)C(=O)N[C@H](C)C(=O)N[C@@H](C[C@H](C)COC(=O)N2CCN(C)CC2)C(=O)N[C@@H](CC(C)C)C(=O)N(C)[C@@H](C(C)C)C(=O)N1C
EC50 [1]: 0.22 µg/mL
IC50 (Splenocyte): 1.9 µg/mL (≈ 1.41 µM)
EC50 [2]: 0.16 µg/mL

C/C=C/C[C@@H](C)[C@@H](O)[C@H]1C(=O)N[C@@H]([C@@H](C)O)C(=O)N(C)CC(=O)N(C)[C@@H](CC(C)C)C(=O)N[C@@H](CC(C)C)C(=O)N(C)[C@@H](CC(C)C)C(=O)N[C@@H](C)C(=O)N[C@H](C)C(=O)N[C@@H](C[C@H](C)COC(=O)NCCOC)C(=O)N[C@@H](CC(C)C)C(=O)N(C)[C@@H](C(C)C)C(=O)N1C
EC50 [1]: 0.55 µg/mL
IC50 (Splenocyte): 0.75 µg/mL (≈ 0.567 µM)
EC50 [2]: 0.097 µg/mL

C/C=C/C[C@@H](C)[C@@H](O)[C@H]1C(=O)N[C@@H]([C@@H](C)O)C(=O)N(C)CC(=O)N(C)[C@@H](CC(C)C)C(=O)N[C@@H](CC(C)C)C(=O)N(C)[C@@H](CC(C)C)C(=O)N[C@@H](C)C(=O)N[C@H](C)C(=O)N[C@@H](C[C@H](C)CN2CCOCC2)C(=O)N[C@@H](CC(C)C)C(=O)N(C)[C@@H](C(C)C)C(=O)N1C
IC50 (Splenocyte): 0.12 µg/mL (≈ 0.093 µM)
EC50 [2]: 0.22 µg/mL

C/C=C/C[C@@H](C)[C@@H](O)[C@H]1C(=O)N[C@@H]([C@@H](C)O)C(=O)N(C)[C@H](COC)C(=O)N(C)[C@@H](CC(C)C)C(=O)N[C@@H](CC(C)C)C(=O)N(C)[C@@H](CC(C)C)C(=O)N[C@@H](C)C(=O)N[C@H](C)C(=O)N[C@@H](C[C@H](C)CN2CCOCC2)C(=O)N[C@@H](CC(C)C)C(=O)N(C)[C@@H](C(C)C)C(=O)N1C
EC50 [3]: 0.11 µg/mL
EC50 [6]: 0.25 µg/mL

C/C=C/C[C@@H](C)[C@@H](O)[C@H]1C(=O)N[C@@H]([C@@H](C)O)C(=O)N(C)[C@H](COC)C(=O)N(C)[C@@H](CC(C)C)C(=O)N[C@@H](CC(C)C)C(=O)N(C)[C@@H](CC(C)C)C(=O)N[C@@H](C)C(=O)N[C@H](C)C(=O)N[C@@H](C[C@H](C)COC(=O)N(C)CCOC)C(=O)N[C@@H](CC(C)C)C(=O)N(C)[C@@H](C(C)C)C(=O)N1C
EC50 [3]: 0.06 µg/mL
IC50 (Splenocyte): 0.85 µg/mL (≈ 0.616 µM)
EC50 [6]: 0.097 µg/mL

C/C=C/C[C@@H](C)[C@@H](O)[C@H]1C(=O)N[C@@H]([C@@H](C)O)C(=O)N(C)CC(=O)N(C)[C@@H](CC(C)C)C(=O)N[C@@H](CC(C)C)C(=O)N(C)[C@@H](CC(C)C)C(=O)N[C@@H](C)C(=O)N[C@H](C)C(=O)N[C@@H](CC(C)C)C(=O)N[C@@H](CC(C)C)C(=O)N(C)[C@@H](C(C)C)C(=O)N1C
EC50 [1]: 3.7 µg/mL
IC50 (Splenocyte): 0.026 µg/mL (≈ 0.0216 µM)
EC50 [2]: 0.096 µg/mL

C/C=C/C[C@@H](C)[C@@H](O)[C@H]1C(=O)N[C@@H]([C@@H](C)O)C(=O)N(C)[C@H](C)C(=O)N(C)[C@@H]([C@@H](C)OC)C(=O)N[C@@H](CC(C)C)C(=O)N(C)[C@@H](CC(C)C)C(=O)N[C@@H](C)C(=O)N[C@H](C)C(=O)N[C@@H](CC(C)C)C(=O)N[C@@H](CC(C)C)C(=O)N(C)[C@@H](C(C)C)C(=O)N1C
solubility [4]: 117 µg/mL (≈ 95.9 µM)
AUC(0-t) at 24 h [5]: 16100 ng·h/mL
bioavailability [7]: 36%

C/C=C/C[C@@H](C)[C@@H](O)[C@H]1C(=O)N[C@@H]([C@@H](C)O)C(=O)N(C)[C@H](COC)C(=O)N(C)[C@@H](CC(C)C)C(=O)N[C@@H](CC(C)C)C(=O)N(C)[C@@H](CC(C)C)C(=O)N[C@@H](C)C(=O)N[C@H](C)C(=O)N[C@@H](C[C@H](C)COC(=O)N2CCO[C@@H](COC)C2)C(=O)N[C@@H](CC(C)C)C(=O)N(C)[C@@H](C(C)C)C(=O)N1C
EC50 [3]: 0.058 µg/mL
IC50 (Splenocyte): 0.88 µg/mL (≈ 0.619 µM)
solubility [4]: 73 µg/mL (≈ 51.3 µM)
AUC(0-t) at 24 h [5]: 12400 ng·h/mL
EC50 [6]: 0.064 µg/mL
bioavailability [7]: 12.9%
